Consider 17 compounds from patent US20170128489A1 (priority 2014, published 2017).

pEC50: −log10 of the molar value. Where two headings read alike, the source gives them in different places.

Assay [1] relates to influenza A (S31N), A/California/07/2009. Format: cell-based, Influenza A virus.
Assay [2] deals with influenza A M2 channels (A/Udorn/72, S31N mutant) (Influenza A virus, UniProt P0DOF5, S31N). Format: cell-based. The settings on record: for Percent Block / pEC50: pH 5.3.
Assay [3] has as its target M2 22-62 peptide, mutant A/Udorn/72 S31N (Influenza A virus, UniProt P0DOF5, S31N). Format: biochemical.
The target in assay [4] is M2 (22-62, S31N) (Influenza A virus, UniProt P0DOF5, S31N). It counts as biochemical.
The test system of assay [5] is influenza A (S31N), A/California/07/2009. It counts as cell-based, Influenza A virus. This is another data set of the same source.

For the compound “Zinc cyclooctylimidodiacetamide [CO-IDAm-Zn]”, in assay [1], the “% Block” value was found to be 54% and the pEC50 was 4.67. In assay [2], the “Percent Washout” value is given as 74% and the “Percent Block” value is reported as 42%.

As to “Copper N-(1-cyclooctyl)iminoacetate acetylacetonate [CO-IMA-Cu-ACAC]”, in assay [1], the “% Block” value is recorded as 65.7% and the pEC50 is 4.88. Moreover, in assay [2], the “Percent Washout” value is 16% and the “Percent Block” value came out at 73%.

Turning to `O=C(O)CN(CC(=O)O)C1CCCCCCC1.[Cu]` [CO-IDA-Cu, Copper cyclooctyliminodiacetic acid], in assay [1], the “% Block” value is recorded as 62.2% and the pEC50 is 4.52. Also, in assay [3], the “Mutant Percent Block” value is listed as 75.75% and the “Mutant w/ Compound Proton Flux” value worked out at 12.89 H^+/sec/channel. Besides, in assay [2], the “Percent Washout” value is listed as 94% and the “Percent Block” value is 26%.

Take `CC(=O)[O-].CC(=O)[O-].[Cu+2]` [Cu(Acetate)2, reference compound]: in assay [1], the “% Block” value is 38% and the negative logarithm of the EC50 (pEC50) is 4.39. Further, in assay [3], the “Mutant Percent Block” value was 67.23% and the “Mutant w/ Compound Proton Flux” value worked out at 17.85 H^+/sec/channel. Also, in assay [2], the “Percent Washout” value amounted to 4%, the negative-log EC50 (pEC50) was 4.13 and the “Percent Block” value was 70%.

Take `O=C(O)CN(CC(=O)O)C1CCCCCCC1` [CO-IDA, Cylcooctyliminodiacetic acid]: the “Percent Block” value in assay [2] was “No Block”.

Consider `O=C1C[N](C2CCCCCCC2)[Cu]2([O]1)[O]C(=O)C[N]2C1CCCCCCC1` [Bis(CO-IMA)-Cu, Copper biscyclooctyl iminomonoacetic acid], for which, in assay [1], the “% Block” value is 66.4% and the pEC50 is 4.60. Besides, in assay [3], the “Mutant Percent Block” value is given as 70.38% and the “Mutant w/ Compound Proton Flux” value was found to be 16.95 H^+/sec/channel. Further, in assay [2], the “Percent Washout” value was 11% and the “Percent Block” value was found to be 81%.

In the case of “Cobalt Biscyclooctylimidodiacetic acid [Bis(CO-IDA)-Co]”, in assay [1], the “% Block” value is listed as 50.6% and the negative logarithm of the EC50 (pEC50) was 4.61. In assay [2], the “Percent Washout” value came out at 89%, the negative logarithm of the EC50 (pEC50) is 3.62 and the “Percent Block” value is 28%.

On to “Copper cyclooctylimidodiacetamide [CO-IDAm-Cu]”, for which, in assay [1], the “% Block” value is 60.2% and the pEC50 is 4.47. Also, in assay [2], the “Percent Washout” value came out at 10% and the “Percent Block” value is 86%.

Consider “Copper N-(1-adamantyl)iminoacetate acetylacetonate [Amt-IMA-Cu-ACAC]”, for which the “% Block” value in assay [4] came out at 96%. Besides, in assay [2], the “Percent Washout” value stood at 58% and the “Percent Block” value is on record as 65%. Besides, in assay [5], the “% Block” value came to 97% and the pEC50 was 5.54.

Consider `[Cl][Cu][Cl]` [CuCl2, reference compound], for which, in assay [4], the “% Block” value is recorded as 94% and the pEC50 was 5.21. Moreover, in assay [5], the “% Block” value worked out at 63% and the negative logarithm of the EC50 (pEC50) was 4.24.

Consider “Copper pinanamine imidazole [Pin-Imid-Cu]”, for which the “% Block” value in assay [1] amounted to 71.6%.

In the case of `NC(=O)CN(CC(N)=O)C1CCCCCCC1` [CO-IDAm, Cyclooctylimidodiacetamide], in assay [2], the “Percent Washout” value is reported as 100% and the “Percent Block” value was determined as 17%.

As for `CC(=O)[O][Zn]1[O]C(=O)C[N]1C1CCCCCCC1` [CO-IMA-Zn, Zinc cyclooctylaminoacetic acid], in assay [1], the “% Block” value is 79.8% and the pEC50 is 4.90. Moreover, in assay [2], the “Percent Washout” value is reported as 93% and the “Percent Block” value turned out to be 42%.

On to “Cobalt bisethylenediamine pinanamine imidazole [Pin-Imid-Co-Bis(en)]”, for which, in assay [1], the “% Block” value amounted to 65.6% and the negative-log EC50 (pEC50) is 4.88. Besides, the “Percent Block” value in assay [2] is given as “No Block”.

Turning to `O=C(O)CN(CC(=O)O)C12CC3CC(CC(C3)C1)C2.[Cu]` [Amt-IDA-Cu, Copper N-(1-adamantyl)-iminodiacetic acid], the “% Block” value in assay [4] and in assay [5] was 82% in each case. Besides, in assay [5], the pEC50 is 4.66.

Turning to `O=C(O)CN(CC(=O)O)C1CCCCCCC1.[Zn]` [CO-IDA-Zn, Zinc cyclooctyliminodiacetic acid], the “% Block” value in assay [1] is recorded as 61.5%. For the same compound, in assay [3], the “Mutant Percent Block” value was 76.29% and the “Mutant w/ Compound Proton Flux” value stood at 13.21 H^+/sec/channel. Also, in assay [2], the “Percent Washout” value came to 80% and the “Percent Block” value is listed as 32%.

Consider `NCCNCCN.[Cl][Cu][Cl]` [Cu(dien)Cl2, reference compound], for which, in assay [5], the “% Block” value stood at 66% and the negative-log EC50 (pEC50) is 4.29.
